Laboratory results: paper PMC6095608 (PLoS ONE, 2018)

Legend:
[1] = target: T1, OCT1 (Homo sapiens, UniProt O15245); assay: Inhibition of net [14C]-metformin uptake in MDCK-OCT1 cells; assay type: cell-based; conditions: 50 μM metformin, 5 min, pH 7.4, efavirenz 0.01–50 μM, read-out: IC50, inhibition of net OCT1-mediated [14C]-metformin uptake
T1 construct: expressed in transfected cells; host or cells: MDCKII (MDCK-OCT1)
T1 sequence (O15245 1-554): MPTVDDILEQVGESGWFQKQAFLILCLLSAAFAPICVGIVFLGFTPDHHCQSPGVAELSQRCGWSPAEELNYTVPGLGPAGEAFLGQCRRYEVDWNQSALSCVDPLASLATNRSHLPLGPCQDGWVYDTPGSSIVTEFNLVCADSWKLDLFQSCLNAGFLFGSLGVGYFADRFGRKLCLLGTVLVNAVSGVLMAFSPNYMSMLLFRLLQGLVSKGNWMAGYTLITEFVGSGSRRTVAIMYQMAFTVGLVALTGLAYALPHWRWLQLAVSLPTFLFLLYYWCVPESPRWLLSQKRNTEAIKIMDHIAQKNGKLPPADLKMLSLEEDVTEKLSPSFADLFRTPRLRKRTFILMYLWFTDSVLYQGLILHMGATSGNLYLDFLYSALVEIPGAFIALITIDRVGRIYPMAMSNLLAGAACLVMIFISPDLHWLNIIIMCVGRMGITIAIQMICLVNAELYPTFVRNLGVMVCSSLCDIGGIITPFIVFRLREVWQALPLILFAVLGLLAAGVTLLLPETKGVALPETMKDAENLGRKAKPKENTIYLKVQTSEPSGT
Method: The singly-transfected OCT1, OCT2, MATE1 or control MDCK cells were seeded on 12-well plates at a density of 0.5 x 10^6 cells per well and cultivated in standard cultivation medium MEM (Gibco) + 10% FBS. Forty-eight hours after seeding, uptake experiments with radiolabelled metformin were performed. Cells were washed with 500 μl pre-warmed HBSS buffer of pH 7.4 (for OCTs) or 8.0 (for MATE1). Solutions of [^14C]-metformin (50 μM) in HBSS buffer of pH 7.4 or 8.0 with or without efavirenz were then added, and the resulting mixtures were left to stand for an accumulation period of 5 minutes. […] After the accumulation period, the solutions were aspirated and the cells were washed three times with 500 μl ice-cold HBSS buffer of pH 7.4 or 8.0 before being lysed with 0.02% sodium dodecyl sulphate (SDS). The intracellular accumulation of radioactivity was detected using a liquid scintillation counter (Tri-Carb 2910 TR Perkin Elmer), and protein concentrations in the cell lysates were measured by the BCA protein assay. Net transporter-mediated uptake was obtained by subtracting the accumulation of metformin in vector control cells from that in drug transporter-overexpressing cells.
A p value of ≤ 0.05 was considered statistically significant. […]

[2] = target: T2, MATE2-K (Homo sapiens, UniProt Q86VL8); assay: Inhibition of net [14C]-metformin uptake in HEK-MATE2-K cells; assay type: cell-based; conditions: HEK 293 cells expressing MATE2-K (HEK-MATE2-K), probe [14C]-metformin (50 μM), 50 μM efavirenz (highest tested), 50 μM metformin, p = 0.119, read-out: Inhibition of MATE2-K-mediated metformin transport
T2 construct: expressed in transfected cells; host or cells: HEK293 (transient, HEK-MATE2-K)
Method: Experiments on the uptake of metformin in HEK 293-cells mediated by MATE2-K were performed as previously described. The number of cells per well was 7.0x10^5 for HEK-MATE2-K cells and 3.5x10^5 for HEK-Co cells to compensate for differences in protein concentration in the two lines. To determine the inhibitory effect of efavirenz, this drug was added to the [^14C]-metformin (50 μM) incubation medium at concentrations of 0.01 μM, 0.1 μM, 1 μM, 5 μM, 10 μM, 25 μM, or 50 μM. […] The net uptake was then calculated as described above.

[3] = target: T3, MATE1 (Homo sapiens, UniProt Q96FL8); assay: Transcellular transport assay across MDCK-MATE1 monolayers; assay type: cell-based; conditions: 10 μM efavirenz, 2 h
T3 construct: expressed in transfected cells; host or cells: MDCKII (MDCK-MATE1)
Method: (§1) Transport experiments employing polarized monolayers of MDCK-OCT1, MDCK-OCT2, or MDCK-MATE1 cell lines as well as doubly transfected MDCK-OCT1-MATE1 or MDCK-OCT2-MATE1 lines and the non-transfected parental control MDCK-Co cells grown on Transwell 3402 cell culture inserts (3.0 μm pore size, 24 mm diameter; Costar, Corning, NY) were performed as described previously. The number of cells per well was 0.5 x 10^6 in all experiments, and the cells were incubated for 3 days to confluence in standard cultivation medium MEM (Gibco) + 10% FBS. After 3 days’ cultivation, medium was removed from both sides and the cells of the monolayer were washed using pre-warmed PBS. […] The pH of the medium on the basolateral side was 7.4, while that on the apical side was set to 6.0 (adjusted by adding HCl or NaOH, when necessary) to ensure optimal MATE1 transport activity. Cells were incubated at 37°C in 5% CO2 for 2 hours. At the end of the incubation period, 50 μl aliquots were sampled and the rest of the medium was immediately removed. The cells were then washed twice with ice-cold PBS, the membranes supporting cellular monolayers were excised, and the cells were dissolved in a 0.02% SDS solution. The radioactivity of the collected samples and lysed monolayers was measured by liquid scintillation counting (Tri-Carb 2910 TR Perkin Elmer), and the protein concentration of the cell lysates was quantified using the BCA protein assay. Transport rates were recorded in pmol per mg protein in the cellular monolayer.

[4] = tested on: OCT2 and MATE1; assay: Transcellular transport assay across doubly transfected MDCK-OCT2-MATE1 monolayers; assay type: cell-based, human; conditions: 10 μM efavirenz, 2 h
Method: as §1

[5] = Efavirenz plasma concentration in patients (literature); assay type: in vivo, human; conditions: calculated from average plasma concentration and unbound percentage
[6] = tested on: human OCT1; parameters: method as in PMID 18490433; conditions: 5 μM efavirenz, 1 min incubation; cited from earlier work
[7] = tested on: MRP transporters; parameters: method as in PMID 17172311; conditions: only at 50 μM; cited from earlier work

T3 sequence (Q96FL8 whole entry): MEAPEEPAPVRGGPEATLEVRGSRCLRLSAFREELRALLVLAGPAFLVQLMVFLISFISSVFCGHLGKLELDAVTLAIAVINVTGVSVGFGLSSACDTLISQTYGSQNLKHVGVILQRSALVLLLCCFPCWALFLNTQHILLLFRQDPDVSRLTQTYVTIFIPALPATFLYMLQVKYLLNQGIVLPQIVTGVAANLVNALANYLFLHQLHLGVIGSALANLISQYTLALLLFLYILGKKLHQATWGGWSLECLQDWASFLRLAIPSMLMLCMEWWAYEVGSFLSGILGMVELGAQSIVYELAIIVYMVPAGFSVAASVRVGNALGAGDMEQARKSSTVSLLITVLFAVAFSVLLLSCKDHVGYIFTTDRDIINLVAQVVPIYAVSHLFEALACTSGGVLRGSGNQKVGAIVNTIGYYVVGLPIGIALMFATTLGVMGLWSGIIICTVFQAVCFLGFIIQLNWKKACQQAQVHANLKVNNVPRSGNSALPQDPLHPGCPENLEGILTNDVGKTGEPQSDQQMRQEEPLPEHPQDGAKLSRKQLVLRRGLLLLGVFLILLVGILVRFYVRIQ
T2 sequence (Q86VL8 1-566 isoform Q86VL8-3): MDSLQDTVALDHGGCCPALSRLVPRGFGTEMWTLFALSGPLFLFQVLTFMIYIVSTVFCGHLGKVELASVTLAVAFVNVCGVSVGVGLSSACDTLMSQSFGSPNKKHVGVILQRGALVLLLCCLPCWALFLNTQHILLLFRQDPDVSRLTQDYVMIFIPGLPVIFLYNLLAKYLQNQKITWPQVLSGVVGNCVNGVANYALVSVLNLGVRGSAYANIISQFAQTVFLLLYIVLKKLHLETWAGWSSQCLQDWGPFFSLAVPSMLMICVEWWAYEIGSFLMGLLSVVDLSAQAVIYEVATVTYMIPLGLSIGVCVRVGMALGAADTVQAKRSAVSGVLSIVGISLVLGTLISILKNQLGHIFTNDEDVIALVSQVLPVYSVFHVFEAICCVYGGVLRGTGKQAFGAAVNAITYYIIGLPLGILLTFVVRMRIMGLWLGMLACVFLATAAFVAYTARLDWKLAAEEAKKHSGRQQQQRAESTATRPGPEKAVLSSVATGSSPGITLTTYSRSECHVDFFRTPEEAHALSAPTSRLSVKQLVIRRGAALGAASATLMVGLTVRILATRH

IC50 [1]: 2300 nM
inhibition at 3 min, 50 μM [2]: 48.1%
Effect on basolateral-to-apical transport of [3H]-MPP+ ([3]; 2 nM MPP+, MDCK-MATE1): Inhibition
Effect on intracellular accumulation of [3H]-MPP+ ([3]; 2 nM MPP+, MDCK-MATE1 monolayers): increased
Effect on intracellular accumulation of [3H]-lamivudine ([3]; 10 nM lamivudine, MDCK-MATE1): enhanced
50x the unbound concentration of efavirenz in elimination organs [5]: around 2.7 μM
SMILES: O=C1Nc2ccc(Cl)cc2[C@@](C#CC2CC2)(C(F)(F)F)O1 [efavirenz, Efavirenz]
Effect on basolateral-to-apical transport of [3H]-MPP+ ([4]; 2 nM MPP+, MDCK-OCT2-MATE1): Inhibition
Effect on intracellular accumulation of [3H]-MPP+ ([4]; 2 nM MPP+, MDCK-OCT2-MATE1 monolayers): unaffected
Effect on intracellular accumulation of [3H]-lamivudine ([4]; 10 nM lamivudine, OCT2-MATE1 cells): remained unaffected
Effect on transcellular transport of [3H]-lamivudine ([4]; 10 nM lamivudine, basal to apical, MDCK-OCT2-MATE1): significantly inhibited
Inhibitory effect on OCT1 with MPP+ as substrate [6]: did not detect any inhibitory effect
Inhibition of MRP transporters [7]: inhibit
